Here are results for eight molecules from patent publication US11015215B2, “Use of high flux SCFA-derivatized monosaccharides in recombinant glycoprotein production” (The Johns Hopkins University, priority 2014, dated 2021).

Data set [1] relates to host cells. To be noted: cited from earlier work; for side effects (e.g., cytotoxicity): compared to perbutanoylated, 3,4,6-tributanoylated or peracetylated counterparts; for cytotoxicity over prolonged exposure: beyond 2 to 3 days, up to and within two weeks.
The test system of data set [2] is hexosamine biosynthetic pathway. To be noted: cited from earlier work.
Data set [3] has as its system human protein integrin α4 stably expressed in a CHO line. The experiment in a line: Azido-sugar labeling of integrin α4 in CHO cells (click biotinylation, streptavidin blot). The data set is classed as cell-based. To be noted: 100 μM, 24 hours. Here is the method:
Whole cell lysate from cells treated with 100 μM 1,3,4-O-Bu3ManNAz for 24 hours and “click” chemistry biotinylated were probed with streptavidin (lane 1), and from the same whole cell lysate, integrin α4β1 was immunopurified using human […] antibody and probed with streptavidin (lane 2). Immunopurified integrin α4β1 was again incubated with the human anti-MUC1 antibody and re-purified (lane 3). The band in lane 4 was the same sample as lane 3 but probed with anti-human integrin α4.
FIG. 2 depicts the result of treating the sample of FIG. 1, lane 3, with PNGAse F and sialidase, with samples then visualized using streptavidin HRP.
The use of tri-butanoylated monosaccharides was examined, initially using 1,3,4-O-Bu3ManNAz to label integrin α4 in CHO cells.

Data set [4] concerns cell surface sialylation. Briefly: Overall sialylation of cell surface glycoconjugates after analog supplementation. It counts as cell-based.
The subject of data set [5] is sialic acid pathway. To be noted: cited from earlier work; for efficiency relative to the unmodified sugar: sialic acid production as endpoint.
Data set [6] deals with GalNAc salvage pathway. To be noted: cited from earlier work.
For data set [7], the system named is host cells. To be noted: cited from earlier work.
Data set [8] has as its system individual sites of N-glycosylation. To be noted: cited from earlier work.

With `CCCC(=O)OC1OC(CO)[C@@H](OC(=O)CCC)[C@H](OC(=O)CCC)C1NC(C)=O` (stereo partly shown) [1,3,4-O-Bu3GlcNAc], in data set [1], the “side effects (e.g., cytotoxicity)” value is given as “minimal side effects”. The “flux into the hexosamine biosynthetic pathway” value in data set [2] is reported as “high levels of flux”.
For `CCCC(=O)OC1OC(CO)[C@@H](OC(=O)CCC)[C@H](OC(=O)CCC)C1NC(=O)CN=[N+]=[N-]` (stereo partly shown) [1,3,4-O-Bu3ManNAz], the “labeling of integrin α4” value in data set [3] is on record as “definitive labeling”.
On to `CC(=O)NC1C(O)OC(CO)[C@@H](O)[C@@H]1O` (stereo partly shown) [ManNAc], for which, in data set [4], the “increase in overall sialylation (cell surface / glycoconjugates)” value (“increase … (cell surface / glycoconjugates)” below) fell in the range of 5 to 10%. Further, the “concentration supplemented to the cell culture media for a robust increase in sialic acid production” value in data set [5] was “up to 50 mM”.
Turning to `CCCC(=O)OCC1OC(OC(=O)CCC)C(NC(C)=O)[C@@H](OC(=O)CCC)[C@@H]1OC(=O)CCC` (stereo partly shown) [Bu4ManNAc, perbutanoylated ManNAc, reference compound], the “efficiency relative to the unmodified sugar” value in data set [5] is listed as ~2,100 fold. In data set [1], the “cytotoxicity over prolonged exposure” value is on record as “host cells died”. The “effect on cell growth” value in data set [1] (within 2 or 3 days of treatment) is “slowed cell growth”.
For `CCCC(=O)OC1OC(CO)[C@H](OC(=O)CCC)[C@H](OC(=O)CCC)C1NC(C)=O` (stereo partly shown) [1,3,4-O-Bu3GalNAc], the “side effects (e.g., cytotoxicity)” value in data set [1] is “minimal side effects”. In data set [6], the “flux into the GalNAc salvage pathway” value is given as “high levels of flux”.
Turning to `CCCC(=O)O.COc1cccc(C#CCON=C2CN3CCC2C3)c1` (stereo not shown) [n-butyrate], in data set [7], the “concentration required to elicit desired cell responses” value was not below 10 mM.
Turning to `CC(=O)NC1C(OC(C)=O)OC(COC(C)=O)[C@@H](OC(C)=O)[C@@H]1OC(C)=O` (stereo partly shown) [Ac4ManNAc, peracetylated ManNAc], the “increase … (cell surface / glycoconjugates)” value in data set [4] fell in the range of 10 to 25%. In data set [5], the “efficiency relative to the unmodified sugar” value was “several hundred fold more efficient”. In addition, the “cytotoxicity over prolonged exposure” value in data set [1] is “cytotoxicity over prolonged exposure to cells”.
Consider `CCCC(=O)OC1OC(CO)[C@@H](OC(=O)CCC)[C@H](OC(=O)CCC)C1NC(C)=O` (stereo partly shown) [1,3,4-O-Bu3ManNAc, tri-butanoylated ManNAc], for which, in data set [4], the “increase … (cell surface / glycoconjugates)” value lay within 50 to 75%. Further, the “flux into the sialic acid pathway” value in data set [5] is on record as “high levels of flux”. In addition, the whole molecule toxicity result in data set [1] is on record as “lack “whole molecule” toxicity”. Further, the growth inhibition entry in data set [1] (in most cell lines) is “mild growth inhibition”. In data set [8] (about ⅓ of sites), the “increase in sialylation, about ⅓ of glycosylation sites with dramatic increases” value is not below 8 fold; the “increase in sialylation, about ⅓ of glycosylation sites with modest increase” value is reported as not above 2 fold; the “level of sialylation, about ⅓ of glycosylation sites that did not respond” value is reported as “remained unchanged”. Further, the “increase in degree of sialylation of specific N-glycans” value in data set [8] is not below 8 fold.
